The values that follow come from US20120108532A1, “PHARMACEUTICAL COMPOSITION FOR NEUROPROTECTIVE TREATMENT IN PATIENTS WITH ICTUS COMPRISING CITICOLINE AND URIC ACID” (HOSPITAL CLINIC PROVINCIAL DE BARCELONA, priority 2009, published 2012).

Assay [1] deals with mixed cultures of neurons/glia. The assay can be described thus: Lactate dehydrogenase (LDH) release assay of cell death after oxygen and glucose deprivation (OGD). In kind it is cell-based, rat. To be noted: 100 μM, added 60 min before, during and after 90 min OGD; read 3 hours 30 minutes after OGD; FIG. 1. As to the method: Mixed cultures of neurons/glia of 18-day rat fetal embryos Sprague-Dawley were prepared as described in Petegnief, V. Saura, J. De Gregorio-Rocasolano, N., and Paul, S. M. (2001) Neuroscience 104, 223-234. The cells were suspended in minimum essential medium (MEM) supplemented by 10% fetal bovine serum and 100 μg/ml gentamicin and placed on 24-well plates previously covered with poly-L-lysine (5 μg/ml) (Nunc, Roskilde, Denmark) with a density of 0.6×10^6 cells/well and cultured at 37° C. in an incubator with 95% atmospheric air/5% CO2. The in vitro medium was partially changed on days 4, 7 and 10 (DIV) with MEM supplemented with B27. The cultures were used in 11/13 DIV. 11.9 mM uric acid was prepared in 1.35 mM lithium carbonate and 5% mannitol. […]
For the lactate dehydrogenase activity assay, cell death was estimated 3 hours 30 minutes after OGD and next lactate dehydrogenase (LDH) activity was measured released in the medium according to a modification of the method of (Wroblewski and LaDue, […]). The reduction of absorbance in 0.75 NADH to 340 nm was followed by a phosphate buffer ([…], pH 7.4) in presence of 4.2 mM pyruvic acid as substrate.

In assay [2] the test system is focal cerebral ischemia. The note with it: adult rat; UA given 2 hours before occlusion of the middle cerebral artery or 1 hour after reperfusion; cited from earlier work.

On to `O=c1[nH]c(=O)c2[nH]c(=O)[nH]c2[nH]1` [uric acid], for which the “cell viability in ischemic conditions (LDH activity released in the medium)” value in assay [1] is recorded as “did not improve the cell viability”. In assay [2], the resulting cerebral infarction is “significantly reduces the resulting cerebral infarction”.
